Reference: ChEMBL document CHEMBL1949614, “Advent of Imidazo[1,2-a]pyridine-3-carboxamides with Potent Multi- and Extended Drug Resistant Antituberculosis Activity” (ACS Med Chem Lett, 2011)
In brackets after ≈: the same amount, converted by molar mass. Activity calls are given as the source filed them. The calls are words filed in the database; no cut-off is given here.

Assays:
[1] = tested on: Mycolicibacterium smegmatis; assay: Antimicrobial activity against Mycobacterium smegmatis by microbroth dilution assay; format: functional
Escherichia coli = assay: Antimicrobial activity against Escherichia coli; format: functional
[2] = tested on: Mycobacteroides abscessus; assay: Antimicrobial activity against Mycobacterium abscessus by microbroth dilution assay; format: functional
Mycobacterium kansasii = assay: Antimicrobial activity against Mycobacterium kansasii by microbroth dilution assay; format: functional
Mycobacterium marinum = assay: Antimicrobial activity against Mycobacterium marinum by microbroth dilution assay; format: functional
Candida albicans = assay: Antifungal activity against Candida albicans; format: functional
Vero = assay: Cytotoxicity against african green monkey Vero cells after 72 hrs; format: cell-based; conditions: Chlorocebus sabaeus
Mycobacteroides chelonae = assay: Antimicrobial activity against Mycobacterium chelonae by microbroth dilution assay; format: functional
[3] = tested on: Mycobacterium tuberculosis; assay: microbe, parasite or virus in culture; conditions: H37Rv ATCC 27294, 168 h
Description: Antituberculosis activity against Mycobacterium tuberculosis H37Rv ATCC 27294 in 7H12 medium after 1 week by microplate alamar blue assay

[4] = tested on: Mycobacterium tuberculosis; assay: microbe, parasite or virus in culture; conditions: H37Rv ATCC 27294, 168 h; remark: listed apart in the source
Description: Antituberculosis activity against Mycobacterium tuberculosis H37Rv ATCC 27294 in GAST medium after 1 week by microplate alamar blue assay

Staphylococcus aureus = assay: Antibacterial activity against Staphylococcus aureus; format: functional
[5] = tested on: Mycobacterium tuberculosis; assay: microbe, parasite or virus in culture; conditions: H37Rv
Description: Antimicrobial activity against Mycobacterium tuberculosis H37Rv by microbroth dilution assay

Mycobacterium avium = assay: Antimicrobial activity against Mycobacterium avium by microbroth dilution assay; format: functional
[6] = tested on: Mycobacterium tuberculosis; assay: Antitubercular activity against non-replicating Mycobacterium tuberculosis H37Rv expressing vibrio harveyii luciferase gene incubated 10 days under anaerobic condition measured after 28 hrs of recovery in aerobic condition by luciferase based low oxygen recovery assay
[7] = Aqueous solubility of the compound in PBS buffer at pH 7.4; format: physicochemical
[8] = Clearance in Sprague-Dawley rat at 1 mg/kg, iv; format: ADME, organism-based; parameters: dose 1 mg/kg, route intravenous; conditions: in vivo
[9] = tested on: Mycobacterium tuberculosis; assay: microbe, parasite or virus in culture; conditions: H37Rv ATCC 27294, 168 h; remark: listed apart in the source
Description: Antituberculosis activity against Mycobacterium tuberculosis H37Rv ATCC 27294 in GAS medium after 1 week by microplate alamar blue assay

[10] = Drug metabolism in rat liver microsomes at 1 mM after 30 mins by LC/MS analysis; format: ADME, Microsome; conditions: read-out: Drug metabolism
Rattus norvegicus = assay: Oral bioavailability in Sprague-Dawley rat at 10 mg/kg; format: ADME, organism-based; conditions: in vivo
[11] = Cmax in Sprague-Dawley rat at 10 mg/kg, po; format: ADME, organism-based; parameters: dose 10 mg/kg, route oral; conditions: in vivo
[12] = Half life in Sprague-Dawley rat at 1 mg/kg, iv; format: ADME, organism-based; parameters: dose 1 mg/kg, route intravenous; conditions: in vivo
[13] = Drug metabolism in human liver microsomes at 1 mM after 30 mins by LC/MS analysis; format: ADME, Microsome; conditions: read-out: Drug metabolism
in vivo = conditions: Sprague-Dawley, rat, po, 10 mg/kg
[14] = tested on: Mycobacterium tuberculosis; assay: Antitubercular activity against Mycobacterium tuberculosis assessed as up-regulation of cytochrome bd oxidase at 0.1 to 10 ug/mL after 6 hrs; format: functional, organism-based
[15] = Half life in rat liver microsomes at 1 mM by LC/MS analysis; format: ADME, Microsome
[16] = tested on: Mycobacterium tuberculosis; assay: Antitubercular activity against Mycobacterium tuberculosis assessed as up-regulation of phosphoenolpyruvate carboxykinase at 0.1 to 10 ug/mL after 6 hrs; format: functional, organism-based

With `COc1cccc(CNC(=O)c2c(C)nc3ncc(C)cn23)c1` the MIC90 [1] was > 50 µM, the MIC (Escherichia coli) was > 128 µM and the MIC90 [2] was > 50 µM. The MIC90 (Mycobacterium kansasii) was 12 µM (≈ 3.72 µg/mL), the MIC90 (Mycobacterium marinum) was > 50 µM and the MIC (Candida albicans) was > 128 µM. The IC50 (Vero) was 88.7 µM, the MIC90 (Mycobacteroides chelonae) was > 50 µM and the MIC90 [3] was 0.48 µM (≈ 0.149 µg/mL). For the same molecule, the MIC90 [4] was 0.1 µM (≈ 0.031 µg/mL), the MIC (Staphylococcus aureus) was > 128 µM and the MIC90 [5] was 5.94 µM (≈ 1.84 µg/mL). For the same molecule, the MIC90 (Mycobacterium avium) was 12 µM (≈ 3.72 µg/mL) and the MIC90 [6] was > 10 µM.
With `COc1ccc(CNC(=O)c2c(C)nc3cc(C)ccn23)cc1` the solubility [7] was 148 µM (≈ 45.8 µg/mL), the clearance [8] was 28 mL/min/kg and the MIC90 [9] was 0.51 µM (≈ 0.158 µg/mL). The MIC (Escherichia coli) was > 128 µM, the metabolised at 0.5 h [10] was 69% and the MIC (Candida albicans) was > 128 µM. The F (Rattus norvegicus) was 50%, the IC50 (Vero) was > 128 µM and the MIC90 [3] was 1.35 µM (≈ 0.418 µg/mL). For the same molecule, the Cmax [11] was 5740 ng/mL, the MIC90 [4] was 0.5 µM (≈ 0.155 µg/mL) and the MIC (Staphylococcus aureus) was > 128 µM. The half-life [12] was 16.8 min, the metabolised at 0.5 h [13] was 30% and the Tmax (in vivo) was 15 min. For the same molecule, the MIC90 [6] was 10.5 µM (≈ 3.25 µg/mL).
With `Cc1ccn2c(C(=O)NCc3cccc(F)c3)c(C)nc2c1` the MIC90 [9] was 0.29 µM (≈ 0.0862 µg/mL), the MIC (Escherichia coli) was > 128 µM and the MIC (Candida albicans) was > 128 µM. The IC50 (Vero) was > 128 µM, the MIC90 [3] was 1.98 µM (≈ 0.589 µg/mL) and the MIC90 [4] was 0.38 µM (≈ 0.113 µg/mL). The MIC (Staphylococcus aureus) was > 128 µM and the MIC90 [6] was 40.1 µM (≈ 11.9 µg/mL).
For `Cc1ccn2c(C(=O)Nc3ccccc3)c(C)nc2c1`, the MIC90 [4] was > 128 µM.
For `Cc1ccn2c(C(=O)NCc3ccc(Cl)cc3)c(C)nc2c1`, the solubility [7] was 25 µM (≈ 7.84 µg/mL), the clearance [8] was 51 mL/min/kg and the MIC90 [9] was 0.5 µM (≈ 0.157 µg/mL). The MIC (Escherichia coli) was > 128 µM, the metabolised at 0.5 h [10] was 79% and the MIC (Candida albicans) was > 128 µM. The F (Rattus norvegicus) was 49%, the IC50 (Vero) was > 128 µM and the MIC90 [3] was 1.94 µM (≈ 0.609 µg/mL). For the same molecule, the Cmax [11] was 2000 ng/mL, the MIC90 [4] was 0.51 µM (≈ 0.16 µg/mL) and the MIC (Staphylococcus aureus) was > 128 µM. The half-life [12] was 24 min, the metabolised at 0.5 h [13] was 82% and the Tmax (in vivo) was 18.6 min. For the same molecule, the MIC90 [6] was 28 µM (≈ 8.79 µg/mL).
In the case of `O=[N+]([O-])c1cn2c(n1)OC[C@@H](OCc1ccc(OC(F)(F)F)cc1)C2` [PRETOMANID], the MIC90 [9] is reported as 0.31 µM (≈ 0.111 µg/mL), the IC50 (Vero) is reported as > 128 µM and the MIC90 [3] is reported as 0.47 µM (≈ 0.169 µg/mL). It also gave an MIC90 [4] of 0.21 µM (≈ 0.0754 µg/mL) and an MIC90 [6] of 4.9 µM (≈ 1.76 µg/mL).
Molecule `COc1cccc(CNC(=O)c2c(C)nc3cc(C)ccn23)c1` has a solubility [7] of 149 µM (≈ 46.1 µg/mL), a clearance [8] of 43 mL/min/kg and an MIC90 [9] of 1.2 µM (≈ 0.371 µg/mL). For the same molecule, the MIC (Escherichia coli) was > 128 µM, the metabolised at 0.5 h [10] was 80% and the MIC (Candida albicans) was > 128 µM. For the same molecule, the IC50 (Vero) was > 128 µM, the MIC90 [3] was 5.9 µM (≈ 1.83 µg/mL) and the Cmax [11] was 3140 ng/mL. The MIC90 [4] was 1 µM (≈ 0.309 µg/mL), the MIC (Staphylococcus aureus) was > 128 µM and the half-life [12] was 19.8 min. For the same molecule, the metabolised at 0.5 h [13] was 47%, the Tmax (in vivo) was 15 min and the MIC90 [6] was 31.4 µM (≈ 9.71 µg/mL).
For `COc1ccccc1CNC(=O)c1c(C)nc2cc(C)ccn12`, the MIC90 [9] was 2.8 µM (≈ 0.866 µg/mL), the IC50 (Vero) was > 128 µM and the MIC90 [4] was 1.9 µM (≈ 0.588 µg/mL).
`CO[C@H]1/C=C/O[C@@]2(C)Oc3c(C)c(O)c4c(O)c(c(/C=N/N5CCN(C)CC5)c(O)c4c3C2=O)NC(=O)/C(C)=C\C=C\[C@H](C)[C@H](O)[C@@H](C)[C@@H](O)[C@@H](C)[C@H](OC(C)=O)[C@@H]1C` [RIFAMPIN] gave an MIC90 [9] of 0.8 µM (≈ 0.658 µg/mL), an MIC90 [1] of 162 µM (≈ 134 µg/mL) and an MIC90 [2] of 162 µM (≈ 134 µg/mL). The MIC90 (Mycobacterium kansasii) was < 0.78 µM, the MIC90 (Mycobacterium marinum) was < 0.78 µM and the IC50 (Vero) was 113 µM. For the same molecule, the MIC90 (Mycobacteroides chelonae) was 150 µM (≈ 123 µg/mL), the MIC90 [3] was 0.07 µM (≈ 0.0576 µg/mL) and the MIC90 [4] was 0.2 µM (≈ 0.165 µg/mL). The MIC90 [5] was 0.05 µM (≈ 0.0411 µg/mL) and the MIC90 (Mycobacterium avium) was < 0.78 µM.
`Cc1ccc(CNC(=O)c2c(C)nc3cc(C)ccn23)cc1` gave an MIC90 [9] of 0.51 µM (≈ 0.15 µg/mL), an IC50 (Vero) of 54.7 µM and an MIC90 [4] of 0.8 µM (≈ 0.235 µg/mL).
For `Cc1ccn2c(C(=O)NCc3ccccc3)c(C)nc2c1`, the solubility [7] was 181 µM (≈ 50.6 µg/mL), the clearance [8] was 91 mL/min/kg and the MIC90 [9] was 0.37 µM (≈ 0.103 µg/mL). The MIC90 [1] was > 50 µM, the MIC (Escherichia coli) was > 128 µM and the MIC90 [2] was > 50 µM. For the same molecule, the metabolised at 0.5 h [10] was 71%, the MIC90 (Mycobacterium kansasii) was 1.32 µM (≈ 0.369 µg/mL) and the MIC90 (Mycobacterium marinum) was > 50 µM. The MIC (Candida albicans) was > 128 µM, the F (Rattus norvegicus) was 76% and the IC50 (Vero) was > 128 µM. For the same molecule, the MIC90 (Mycobacteroides chelonae) was > 50 µM, the MIC90 [3] was 1.9 µM (≈ 0.531 µg/mL) and the Cmax [11] was 3010 ng/mL. The MIC90 [4] was 0.69 µM (≈ 0.193 µg/mL), the MIC (Staphylococcus aureus) was > 128 µM and the MIC90 [5] was 1.07 µM (≈ 0.299 µg/mL). The half-life [12] was 21 min, the metabolised at 0.5 h [13] was 59% and the Activity [14] was “Active”. For the same molecule, the MIC90 (Mycobacterium avium) was 1.32 µM (≈ 0.369 µg/mL), the half-life [15] was 19 min and the Activity [16] was “Active”. It also gave a Tmax (in vivo) of 15 min and an MIC90 [6] of 53.6 µM (≈ 15 µg/mL).
For `Cc1ccn2c(C(=O)NCc3ccc(Cl)c(Cl)c3)c(C)nc2c1`, the MIC90 [9] was 9.3 µM (≈ 3.24 µg/mL) and the MIC90 [4] was 14.4 µM (≈ 5.01 µg/mL).
